# Experimental data as given in patent publication US12023384B2, “Immunogenic peptides comprising an MHC class II T cell epitope and a redox motif” (IMCYSE SA, priority 2014, dated 2024).
# No end group written: not given here.
# Assays:
# Human recombinant CD4 = Human recombinant CD4 (Homo sapiens, UniProt P01730); experiment: Polymerization of human recombinant CD4 (non-reducing PAGE); format: biochemical; set-up: key: The Table indicates whether or not a polymerization had occurred (+); settings: 50 μM peptide, 300 ng recCD4, Hepes buffer, 15 minutes at 68° C.
# Experimental: Fifty μM of DTT is used as a positive control under the same conditions. LDS sample buffer (7.5 μl; non-reducing) is then added to 15 μl of the peptide/CD4 mixture. The mixture is then submitted to non-reducing PAGE. After Coomassie Blue staining, protein bands are analyzed for the presence of monomeric, dimeric or multimeric recCD4, as identified by the decreased migratory capacities into the gel. The Table indicates whether or not a polymerization had occurred (+).
# [1] = Evaluation of reductase activity on a synthetic peptide (fluorescence de-quenching); format: biochemical; settings: peptide 25 μM, 2.5 μM (FITC-Gly-Cys-Asp)ox, PBS, 40 minutes, 25° C., fluorescence 530 nm
# Experimental: The reductase activity of the peptides is determined using a fluorescent described in Tomazzolli et al. (2006) Anal. Biochem. 350, 105-112. Two peptides with a FITC label become self-quenching when they covalently attached to each other via a disulfide bridge. Upon reduction by a peptide in accordance with the present invention, the reduced individual peptides become fluorescent again.
# Control experiments were performed with a peptide with a “normal” reducing peptide, i.e. a peptide with a redox motif but without additional histidine and with a peptide comprising no redox motif.
# A FITC -NH-Gly-Cys-Asp-COOH peptide was synthesized (Eurogentec, Belgium) and self-quenched by solubilization in DMSO ((FITC-Gly-Cys-Asp)ox). The reduction of 2.5 μM (FITC-Gly-Cys-Asp)ox was followed on a 96 well plate during 40 minutes (25° C.) after incubation in PBS with peptide (25 μM) as listed in the accompanying table, or with 2 mM Dithiothreitol (DTT). Reduction was measured as a function of increase in fluorescence read at 530 nm after excitation at 494 nm, using a CytoFluor® multiplate reader (Applied Biosystems). Results are shown in the table of example 10 under the heading “Reductase activity”.
# [2] = system: polyclonal CD4+CD25− cells obtained from animals in which EAE is effective; experiment: Bystander suppression assay with T cell line from immunised mice; format: cell-based, C57BL/6 mice; settings: CD4+ T cell line from mice immunised 3 x 20 μg sc on aluminium hydroxide, after four re-stimulations
# Experimental: Groups of C57BL/6 mice are immunised subcutaneously (20 μg) with the peptide of example 1 which contains the modified sequence motif [SEQ ID NO: 1] or control peptide [SEQ ID NO: 2, 4 or 7] adsorbed onto aluminium hydroxide. Three injections are performed at 2-week intervals. Ten days after the last immunisation, mice are sacrificed and CD4+ T cells (2×10^6 cells) are prepared from the spleen using magnetic beads. CD4+ T cells are then stimulated in vitro by the MOG T cell epitope (20 μg/ml) presented by adherent spleen cells (2×10^6 cells).
# After four re-stimulations, a T cell line is tested in a bystander suppression assay with, as target cells, polyclonal CD4^+CD25^− cells obtained from animals in which EAE (Experimental autoimmune encephalomyelitis) is effective.
substance,measurement,setting,value
"AAACHGCVRSLQPLALEGSLQKRG (proinsulin) [SEQ ID NO: 114, reference compound]",CD4 polymerisation,Human recombinant CD4,low
same,Reductase activity (%),[1],22%
"AAACHPCVRSLQPLALEGSLQKRG (proinsulin) [SEQ ID NO: 112, reference compound]",CD4 polymerisation,Human recombinant CD4,+
same,Reductase activity (%),[1],75%
"AAACPYCVRSLQPLALEGSLQKRG (proinsulin) [SEQ ID NO: 111, reference compound]",CD4 polymerisation,Human recombinant CD4,+
same,Reductase activity (%),[1],6%
AAHCHPCVRSLQPLALEGSLQKRG (proinsulin) [SEQ ID NO: 113],CD4 polymerisation,Human recombinant CD4,+
same,Reductase activity (%),[1],64%
AHACPYCVRSLQPLALEGSLQKRG (proinsulin) [SEQ ID NO: 110],CD4 polymerisation,Human recombinant CD4,+
same,Reductase activity (%),[1],13%
"CPYCSRVVHLYRNGKD (CPYCSRVVHLYRNGKD-NH2; cysteine pairing not given here) [SEQ ID NO: 7, reference compound]",capacity to induce death in target cells,[2],have the capacity to induce death in target cells
H CPYCVRSLQPLALEGSLQKRG (HCPYCVRSLQPLALEGSLQKRG; proinsulin) [SEQ ID NO: 108],CD4 polymerisation,Human recombinant CD4,+
same,Reductase activity (%),[1],68%
HAACPYCVRSLQPLALEGSLQKRG (proinsulin) [SEQ ID NO: 109],CD4 polymerisation,Human recombinant CD4,+
same,Reductase activity (%),[1],0%
HCPYCSRVVHLYRNGKD [SEQ ID NO: 1],capacity to induce death in target cells,[2],have the capacity to induce death in target cells
